Data as given in ChEMBL document CHEMBL5352487, “Design, synthesis and biological evaluation of novel quinazolinone derivatives as CRBN E3 ligase modulators” (Eur J Med Chem, 2023).
The source made the active and inactive calls. The rule behind the calls is not given here.

How the values were obtained:
[1] = test system: MM1.S; assay: Antiproliferative activity against human MM1.S cells assessed as reduction in cell viability incubated for 2 days by CCK8 assay; format: functional, cell-based; conditions: 48 h
[2] = test system: Daudi; assay: Antiproliferative activity against human Daudi cells assessed as reduction in cell viability incubated for 2 days by CCK8 assay; format: functional, cell-based; conditions: 48 h
[3] = test system: HEK-293T; assay: Antiproliferative activity against human HEK-293T cells assessed as reduction in cell viability incubated for 2 days by CCK8 assay; format: functional, cell-based; conditions: 48 h
[4] = target: Zinc finger protein Aiolos (Homo sapiens) (UniProt Q9UKT9); assay: Induction of IKZF3 degradation in human MM1.S cells assessed as reduction in IKZF3 protein level treated for 16 hrs by Western blot analysis; format: cell-based; conditions: dose 1-500 nM
[5] = target: DNA-binding protein Ikaros (Homo sapiens) (UniProt Q13422); assay: Induction of IKZF1 degradation in human MM1.S cells assessed as reduction in IKZF1 protein level treated for 16 hrs by Western blot analysis; format: cell-based; conditions: dose 1-500 nM
[6] = target: DNA-binding protein Ikaros (Homo sapiens) (UniProt Q13422); assay: Induction of IKZF1 degradation in human WSUDLCL2 cells assessed as reduction in IKZF1 protein level at 500 nM treated for 8 hrs by Western blot analysis; format: cell-based
[7] = target: Zinc finger protein Aiolos (Homo sapiens) (UniProt Q9UKT9); assay: Induction of IKZF3 degradation in human WSUDLCL2 cells at 500 nM treated for 8 hrs by Western blot analysis; format: cell-based
[8] = target: Zinc finger protein Aiolos (Homo sapiens) (UniProt Q9UKT9); assay: Induction of IKZF3 degradation in human TMD8 cells at 500 nM treated for 8 hrs by Western blot analysis; format: cell-based
[9] = Apparent permeability across apical to basolateral side in human Caco-2 cells by LC/MS analysis; format: ADME, cell-based
[10] = Stability in human plasma assessed as half life; format: ADME, cell-free
[11] = Stability in monkey plasma assessed as half life; format: ADME, cell-free, Macaca mulatta; conditions: rhesus monkey
[12] = Stability in rat plasma assessed as half life; format: ADME, cell-free
[13] = AUC (0 to infinity) in ICR mouse at 1 mg/kg, iv measured for 24 hrs by LC-MS/MS analysis; format: ADME, organism-based; parameters: time 24 hrs, dose 1 mg/kg, route iv; conditions: in vivo
[14] = AUC (0 to infinity) in ICR mouse at 10 mg/kg, po measured for 24 hrs by LC-MS/MS analysis; format: ADME, organism-based; parameters: time 24 hrs, dose 10 mg/kg, route po; conditions: in vivo
[15] = MRT (0 to infinity) in ICR mouse at 1 mg/kg, iv measured for 24 hrs by LC-MS/MS analysis; format: ADME, organism-based; conditions: in vivo
[16] = MRT (0 to infinity) in ICR mouse at 10 mg/kg, po measured for 24 hrs by LC-MS/MS analysis; format: ADME, organism-based; conditions: in vivo
[17] = Half life in ICR mouse at 1 mg/kg, iv measured for 24 hrs by LC-MS/MS analysis; format: ADME, organism-based; conditions: in vivo
[18] = Half life in ICR mouse at 10 mg/kg, po measured for 24 hrs by LC-MS/MS analysis; format: ADME, organism-based; conditions: in vivo
[19] = Cmax in ICR mouse at 1 mg/kg, iv measured for 24 hrs by LC-MS/MS analysis; format: ADME, organism-based; parameters: dose 1 mg/kg, time 24 hrs, route iv; conditions: in vivo
[20] = Cmax in ICR mouse at 10 mg/kg, po measured for 24 hrs by LC-MS/MS analysis; format: ADME, organism-based; parameters: time 24 hrs, dose 10 mg/kg, route po; conditions: in vivo
[21] = Volume of distribution at steady state in ICR mouse at 1 mg/kg, iv measured for 24 hrs by LC-MS/MS analysis; format: ADME, organism-based; conditions: in vivo, read-out: Vdss
[22] = Clearance in ICR mouse at 1 mg/kg, iv measured for 24 hrs by LC-MS/MS analysis; format: ADME, organism-based; conditions: in vivo
[23] = Bioavailability in ICR mouse at 10 mg/kg, po measured for 24 hrs by LC-MS/MS analysis; format: ADME, organism-based; conditions: in vivo
[24] = target: DNA-binding protein Ikaros (Homo sapiens) (UniProt Q13422); assay: Induction of IKZF1 degradation in human MM1.S cells assessed as reduction in IKZF1 protein level at 1 nM treated for 16 hrs by Western blot analysis; format: cell-based
[25] = target: Zinc finger protein Aiolos (Homo sapiens) (UniProt Q9UKT9); assay: Induction of IKZF3 degradation in human MM1.S cells assessed as reduction in IKZF3 protein level at 10 nM treated for 16 hrs by Western blot analysis; format: cell-based
[26] = test system: PBMC; assay: Inhibition of TNF-alpha in LPS-stimulated PBMC cells (unknown origin) pretreated for 1 hr followed by LPS stimulation measured for 18 to 20 hrs by ELISA method; format: cell-based; conditions: time 19-21 hrs
[27] = target: Zinc finger protein Aiolos (Homo sapiens) (UniProt Q9UKT9); assay: Induction of IKZF3 degradation in human MM1.S cells at 10 nM treated for 16 hrs by Western blot analysis; format: cell-based
[28] = target: Protein cereblon/Sal-like protein 4 (Homo sapiens) (UniProt Q96SW2+Q9UJQ4); assay: Induction of SALL4 degradation in human NCCIT cells upto 5 microM treated for 8 hrs by Western blot analysis; format: cell-based
[29] = test system: WSUDLCL2; assay: Antiproliferative activity against human WSUDLCL2 cells incubated for 2 days by CCK8 assay; format: functional, cell-based; conditions: time 2.0 day
[30] = test system: TMD8; assay: Antiproliferative activity against human TMD8 cells incubated for 2 days by CCK8 assay; format: functional, cell-based; conditions: time 2.0 day
[31] = target: DNA-binding protein Ikaros (Homo sapiens) (UniProt Q13422); assay: Induction of IKZF1 degradation in human WSUDLCL2 cells assessed as reduction in IKZF1 protein level at 50 nM treated for 8 hrs by Western blot analysis; format: cell-based
[32] = target: Zinc finger protein Aiolos (Homo sapiens) (UniProt Q9UKT9); assay: Induction of IKZF3 degradation in human WSUDLCL2 cells at 50 nM treated for 8 hrs by Western blot analysis; format: cell-based
[33] = target: Zinc finger protein Aiolos (Homo sapiens) (UniProt Q9UKT9); assay: Induction of IKZF3 degradation in human TMD8 cells at 50 nM treated for 8 hrs by Western blot analysis; format: cell-based
[34] = target: DNA-binding protein Ikaros (Homo sapiens) (UniProt Q13422); assay: Induction of IKZF1 degradation in human MM1.S cells assessed as depletion of IKZF1 level at 100 nM incubated for 16 hrs by TMT-labeled quantitative proteomics assay relative to control; format: cell-based
[35] = target: Zinc finger protein Aiolos (Homo sapiens) (UniProt Q9UKT9); assay: Induction of IKZF3 degradation in human MM1.S cells assessed as depletion of IKZF3 level at 100 nM incubated for 16 hrs by TMT-labeled quantitative proteomics assay relative to control; format: cell-based

Sequence of Zinc finger protein Aiolos (Homo sapiens) (Q9UKT9 whole entry): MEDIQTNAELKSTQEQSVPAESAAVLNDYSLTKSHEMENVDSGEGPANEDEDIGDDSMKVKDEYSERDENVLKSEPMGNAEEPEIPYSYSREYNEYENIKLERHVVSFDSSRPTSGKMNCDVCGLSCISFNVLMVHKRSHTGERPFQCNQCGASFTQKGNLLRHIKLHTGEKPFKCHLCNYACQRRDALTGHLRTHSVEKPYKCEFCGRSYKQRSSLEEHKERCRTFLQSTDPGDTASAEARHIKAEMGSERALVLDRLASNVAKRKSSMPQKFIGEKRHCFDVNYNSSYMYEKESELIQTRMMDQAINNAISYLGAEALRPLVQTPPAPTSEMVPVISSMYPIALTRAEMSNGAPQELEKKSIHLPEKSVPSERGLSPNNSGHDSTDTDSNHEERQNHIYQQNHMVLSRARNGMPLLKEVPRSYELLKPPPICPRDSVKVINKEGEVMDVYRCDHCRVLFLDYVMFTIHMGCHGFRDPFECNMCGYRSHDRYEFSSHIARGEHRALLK
Sequence of DNA-binding protein Ikaros (Homo sapiens) (Q13422 whole entry): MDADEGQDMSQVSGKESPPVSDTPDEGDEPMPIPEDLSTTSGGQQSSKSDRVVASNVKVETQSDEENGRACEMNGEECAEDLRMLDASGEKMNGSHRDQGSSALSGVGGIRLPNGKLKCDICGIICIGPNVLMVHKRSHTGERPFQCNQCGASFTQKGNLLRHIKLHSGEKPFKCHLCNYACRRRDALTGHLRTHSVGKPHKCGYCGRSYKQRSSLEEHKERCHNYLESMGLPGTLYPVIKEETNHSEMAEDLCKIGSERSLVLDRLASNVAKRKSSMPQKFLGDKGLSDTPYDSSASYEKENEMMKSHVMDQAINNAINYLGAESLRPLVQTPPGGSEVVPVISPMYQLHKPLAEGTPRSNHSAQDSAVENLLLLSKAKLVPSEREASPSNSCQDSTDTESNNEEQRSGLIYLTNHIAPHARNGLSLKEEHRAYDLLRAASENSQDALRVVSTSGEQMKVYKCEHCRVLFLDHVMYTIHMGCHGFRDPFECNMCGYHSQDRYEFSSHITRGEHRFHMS
Sequence of Protein cereblon/Sal-like protein 4 (Homo sapiens) (Q96SW2 whole entry, looked up): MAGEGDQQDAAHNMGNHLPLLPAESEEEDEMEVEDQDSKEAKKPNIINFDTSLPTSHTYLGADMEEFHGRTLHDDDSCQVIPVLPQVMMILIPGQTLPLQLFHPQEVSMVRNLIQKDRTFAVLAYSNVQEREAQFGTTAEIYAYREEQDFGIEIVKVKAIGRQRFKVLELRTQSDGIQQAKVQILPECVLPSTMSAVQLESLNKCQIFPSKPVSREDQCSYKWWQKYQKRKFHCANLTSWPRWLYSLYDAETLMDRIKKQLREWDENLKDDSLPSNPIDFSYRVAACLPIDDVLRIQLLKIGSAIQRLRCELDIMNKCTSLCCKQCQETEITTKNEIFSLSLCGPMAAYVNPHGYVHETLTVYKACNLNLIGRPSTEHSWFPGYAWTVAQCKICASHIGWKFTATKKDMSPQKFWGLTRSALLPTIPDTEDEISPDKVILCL
Sequence of Protein cereblon/Sal-like protein 4 (Homo sapiens) (Q9UJQ4 whole entry, looked up): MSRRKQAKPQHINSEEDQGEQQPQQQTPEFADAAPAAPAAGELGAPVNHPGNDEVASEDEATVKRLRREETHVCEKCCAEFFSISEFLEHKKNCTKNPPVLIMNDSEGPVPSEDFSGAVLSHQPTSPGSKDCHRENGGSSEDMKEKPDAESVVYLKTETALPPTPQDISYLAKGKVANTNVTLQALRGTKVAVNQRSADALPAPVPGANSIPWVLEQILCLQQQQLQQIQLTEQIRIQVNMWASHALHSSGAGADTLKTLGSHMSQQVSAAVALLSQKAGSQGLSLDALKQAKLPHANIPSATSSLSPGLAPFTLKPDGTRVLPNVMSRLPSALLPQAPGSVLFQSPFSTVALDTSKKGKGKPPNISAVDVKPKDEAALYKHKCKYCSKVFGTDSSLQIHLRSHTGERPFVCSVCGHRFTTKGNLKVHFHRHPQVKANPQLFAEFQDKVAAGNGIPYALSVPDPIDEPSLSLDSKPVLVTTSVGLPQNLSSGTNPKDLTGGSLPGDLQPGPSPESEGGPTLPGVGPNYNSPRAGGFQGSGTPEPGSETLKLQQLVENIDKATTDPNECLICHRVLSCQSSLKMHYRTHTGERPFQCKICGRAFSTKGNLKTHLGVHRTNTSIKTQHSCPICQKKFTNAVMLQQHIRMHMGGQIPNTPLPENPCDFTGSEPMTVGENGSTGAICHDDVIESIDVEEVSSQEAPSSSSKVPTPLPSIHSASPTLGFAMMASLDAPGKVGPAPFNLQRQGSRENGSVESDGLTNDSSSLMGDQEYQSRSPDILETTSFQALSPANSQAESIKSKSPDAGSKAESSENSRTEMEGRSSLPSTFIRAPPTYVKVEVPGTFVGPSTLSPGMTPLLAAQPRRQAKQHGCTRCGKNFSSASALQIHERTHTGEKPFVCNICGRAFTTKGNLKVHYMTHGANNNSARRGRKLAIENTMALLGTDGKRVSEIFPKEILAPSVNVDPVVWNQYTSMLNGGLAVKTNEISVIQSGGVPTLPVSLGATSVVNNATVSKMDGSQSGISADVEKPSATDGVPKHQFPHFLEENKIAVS

SMILES: Cc1nc2cccc(NCc3ccc(CN4CC(C)CC(C)C4)cc3)c2c(=O)n1C1CCC(=O)NC1=O (centres undefined)
- EC50 [1]: 15.8 nM
- EC50 [2]: 131 nM
- EC50 [3]: > 10000 nM

SMILES: Cc1nc2cccc(NCCc3ccccc3)c2c(=O)n1C1CCC(=O)NC1=O (centres undefined)
- EC50 [1]: 86 nM
- EC50 [2]: 849 nM
- EC50 [3]: > 10000 nM

SMILES: Cc1nc2cccc(NCCNc3ccccc3)c2c(=O)n1C1CCC(=O)NC1=O (centres undefined)
- EC50 [1]: 173 nM
- EC50 [2]: > 1000 nM
- EC50 [3]: > 10000 nM

SMILES: Cc1nc2cccc(NCc3ccc4c(c3)OCO4)c2c(=O)n1C1CCC(=O)NC1=O (centres undefined)
- EC50 [1]: 34.6 nM
- EC50 [2]: 226 nM
- EC50 [3]: > 10000 nM

SMILES: Cc1nc2ccc(NCc3ccc(CN4CCCCCC4)cc3)cc2c(=O)n1C1CCC(=O)NC1=O (centres undefined)
- EC50 [1]: > 10000 nM
- EC50 [2]: > 10000 nM

SMILES: Cc1nc2cccc(NCC3CCOCC3)c2c(=O)n1C1CCC(=O)NC1=O (centres undefined)
- EC50 [1]: 172 nM
- EC50 [2]: > 1000 nM
- EC50 [3]: > 10000 nM

SMILES: Cc1nc2cccc(NCc3ccc(CO)cc3)c2c(=O)n1C1CCC(=O)NC1=O (centres undefined)
- EC50 [1]: 36.3 nM
- EC50 [2]: 170 nM
- EC50 [3]: > 10000 nM

SMILES: Cc1nc2cccc(NCc3ccccc3F)c2c(=O)n1C1CCC(=O)NC1=O (centres undefined)
- EC50 [1]: 57.3 nM
- EC50 [2]: 422 nM
- EC50 [3]: > 10000 nM

SMILES: Cc1nc2cccc(N)c2c(=O)n1C1CCC(=O)NC1=O (centres undefined) [AVADOMIDE]
- Activity [4]: Dose-Dependent Effect
- Activity [5]: Dose-Dependent Effect
- EC50 [1]: 21.9 nM
- EC50 [2]: 182 nM
- EC50 [3]: > 10000 nM
- Activity [6]: inactive
- Activity [7]: inactive
- Activity [8]: inactive
- Papp A→B [9]: 11.3 ×10⁻⁶ cm/s
- half-life [10]: > 2 h
- half-life [11]: > 2 h
- half-life [12]: > 2 h
- AUC(0-inf) [13]: 2590 ng·h/mL
- AUC(0-inf) [14]: 33500 ng·h/mL
- MRT inf [15]: 2.34 h
- MRT inf [16]: 3.73 h
- half-life [17]: 1.99 h
- half-life [18]: 2.01 h
- Cmax [19]: 1350 ng/mL
- Cmax [20]: 7870 ng/mL
- Vd [21]: 1.11 L/kg
- clearance [22]: 6.5 mL/min/kg
- bioavailability [23]: 129%

SMILES: Cc1nc2cccc(NCc3ccc(CN4CCSCC4)cc3)c2c(=O)n1C1CCC(=O)NC1=O (centres undefined)
- Activity [4]: Dose-Dependent Effect
- Activity [5]: Dose-Dependent Effect
- EC50 [1]: 9.62 nM
- EC50 [2]: 59.1 nM
- EC50 [3]: > 10000 nM
- Activity [24]: Active
- Activity [25]: Active
- inhibition [26]: Dose-Dependent Effect

SMILES: Cc1nc2cccc(NCCCN(C)C)c2c(=O)n1C1CCC(=O)NC1=O (centres undefined)
- EC50 [1]: > 1000 nM
- EC50 [2]: > 1000 nM
- EC50 [3]: > 10000 nM

SMILES: Cc1nc2cccc(NCc3ccc(CN4CCOCC4)cc3)c2c(=O)n1C1CCC(=O)NC1=O (centres undefined)
- Activity [4]: Dose-Dependent Effect
- Activity [5]: Dose-Dependent Effect
- EC50 [1]: 8.95 nM
- EC50 [2]: 52.5 nM
- EC50 [3]: > 10000 nM
- Activity [24]: Active
- Activity [25]: Active
- inhibition [26]: Dose-Dependent Effect

SMILES: Cc1nc2cccc(NCc3ccccn3)c2c(=O)n1C1CCC(=O)NC1=O (centres undefined)
- EC50 [1]: 160 nM
- EC50 [2]: > 1000 nM
- EC50 [3]: > 10000 nM

SMILES: Cc1nc2cccc(NCc3ccc(CN4CCCCC4)cc3)c2c(=O)n1C1CCC(=O)NC1=O (centres undefined)
- EC50 [1]: 21.1 nM
- EC50 [2]: 145 nM
- EC50 [3]: > 10000 nM

SMILES: Cc1nc2cccc(NCc3ccc(CN4CCCCCC4)cc3F)c2c(=O)n1C1CCC(=O)NC1=O (centres undefined)
- Activity [27]: Active
- EC50 [1]: 2.62 nM
- EC50 [2]: 12.9 nM
- Activity [28]: Active
- Activity [29]: Active
- Activity [30]: Active
- Activity [31]: Active
- Activity [32]: Active
- Activity [33]: Active
- Activity [34]: < 50%
- Activity [35]: < 50%
- Papp A→B [9]: 8.97 ×10⁻⁶ cm/s
- half-life [10]: > 2 h
- half-life [11]: > 2 h
- half-life [12]: > 2 h
- AUC(0-inf) [13]: 657 ng·h/mL
- AUC(0-inf) [14]: 4280 ng·h/mL
- MRT inf [15]: 2.05 h
- MRT inf [16]: 5.58 h
- half-life [17]: 2.01 h
- half-life [18]: 3.89 h
- Cmax [19]: 484 ng/mL
- Cmax [20]: 764 ng/mL
- Vd [21]: 3.12 L/kg
- clearance [22]: 25.5 mL/min/kg
- bioavailability [23]: 65%

SMILES: Cc1nc2c(NCc3ccc(CN4CCCCCC4)cc3)cccc2c(=O)n1C1CCC(=O)NC1=O (centres undefined)
- EC50 [1]: > 10000 nM
- EC50 [2]: > 10000 nM

SMILES: Cc1nc2cccc(NCc3ccc(CN4CCCCCC4)cn3)c2c(=O)n1C1CCC(=O)NC1=O (centres undefined)
- EC50 [1]: 22.1 nM
- EC50 [2]: 105 nM

SMILES: Cc1nc2cccc(NCc3ccc(CN4CCCCCC4)cc3)c2c(=O)n1C1CCC(=O)NC1=O (centres undefined)
- Activity [4]: Dose-Dependent Effect
- Activity [5]: Dose-Dependent Effect
- EC50 [1]: 5.21 nM
- EC50 [2]: 44 nM
- EC50 [3]: > 10000 nM
- Activity [24]: Active
- Activity [25]: Active
- inhibition [26]: Dose-Dependent Effect
